Test results from patent US20240164380A1, “ANTIFUNGAL COMPOSITIONS AND METHODS FOR THEIR USE” (Texas Crop Science, Inc., priority 2022, published 2024).

Columns and labels:
apyrase = test: In vitro apyrase assay (screen for apyrase inhibitors); type: biochemical; details: inhibitor conc at 1 mM, 1 hr at room temperature, absorbance @630 nm
Description: Method 1: In Vitro Apyrase Assay:
The apyrase inhibitory activity was assessed using an in vitro assay. The method of Windsor, Bio Techniques 33:1024-1030 (November 2002) was used as follows:
96 well plates were used for the assay: (Greiner bio-one: REF-655901- 96 well, PS, F-bottom, Clear, Non-binding)
Reaction Buffer: 60 mM Hepes; 3 mM MgCl2, 3 mM CaCl2 and 3 mM ATP (pH 6.5)
Development Buffer A: 2% aqueous ammonium molybdate
Development Buffer B: 11% ascorbic acid in 37.5% TCA in water
Stop buffer C: 2% trisodium citrate in 2% acetic acid solution in water • Add 100 μl of reaction buffer to each well. • Add 10 μl of DMSO (control) or inhibitor/compound or compounds such as N1915 or orthovanadate to each well. (use inhibitor conc at 1 mM; orthovanadate at 2 mM and N1915 at 1 mM) • Add 10 μl of apyrase (concentration based on optimization—Dilute 1 U/μl enzyme to different concentrations such as 0.1 U, 0.05 U, 0.0025, 0.001 U, 0.0005 U—to find a good range) • Incubate plate at room temperature for 1 hr • Mix development buffer A and B in the ratio of 1:1.5 (just before use). • Add 50 ul of A:B mix in each well (incubate for 2 mins) • Add 50 ul of C in each well • Measure/Read Absorbance of plate @630 nm Compound 1 inhibited inhibited apyrase in this assay at about 60%. : […]

plant pathogenic fungi = test: Crop trials of fungicides with and without the enhancer compound (FIGS. 1-8); type: in vivo; details: soy, wheat and grape crops
From the text: FIG. 1 illustrates Asian soybean rust severity in untreated crop (UTC) versus soy treated with azoxystrobin, chlorothalonil, tebuconazole or azoxystrobin and tebuconazole with and without the present enhancer compound (TX 15) at 1, 7, 9, 14 and 16 days after application (DAA).
FIG. 2 illustrates frogeye leaf spot intensity of infection in soy in untreated crop (UTC) versus soy treated with azoxystrobin, chlorothalonil, tebuconazole or azoxystrobin and tebuconazole with and without the present enhancer compound (TX15) at 4, 11 and 18 (two trials) days after application (DAA).
FIG. 3 illustrates yellow rust foliar infection percentage of wheat in untreated crop (UTC) versus wheat with preventive application of AMISTAR® (azoxystrobin), folpet, PROLINE® (prothioconazole), REVYSTAR® (fluxapyroxad and mefentrifluconazole), A20944 (prothioconazole and pydiflumetofen), ELATUS® ERA (prothioconazole and benzovindiflupyr), A21857 (ADEPIDYN®; pydiflumetofen), INATREQ® (fenpicoxamid) with and without the present enhancer compound (TX 15). […]
FIG. 7 illustrates the severity of downy mildew attack on grape crops assessed as to bunches and leaves in untreated crop (UTC) versus crop treated with cyazofamid or cyazofamid and the present enhancer compound (TX 15). […]

[1] = system: Zymoseptoria tritici (Septoria tritici); test: Greenhouse crop test of Compound 1 with metconazole on winter wheat; type: in vivo; details: winter wheat infected with Z. tritici, preventative spray 1 d before inoculation, FIG. 9
Description: A 2019 field isolate of Zymoseptoria tritici (Septoria tritici) was grown on potato dextrose agar (PDA), amended with penicillin and streptomycin, to eliminate possible bacterial contamination, for 6 d at 20° C.
Spore suspensions were made by flooding the plates with sterile distilled water and scraping gently. The spore suspensions were adjusted to 10^6 conidia mL^−1, by haemocytometer counts and appropriate dilution, before final re-suspension in potato dextrose broth, amended with 1.5 g L^−1 gelatin and 0.5 g L^−1 sodium oleate.
Septoria-susceptible winter wheat cv Trinity was planted in Levington M3 compost. Seeds (12-15 per pot) were planted per 9 cm pot and grown to growth stage 12. Plants were accommodated in a glasshouse with day heating to 20° C., venting at 22° C., and night heating to maintain 15° C. Plants were inoculated with Z. tritici by spraying spore suspensions at 10^6 spores ml^−1 to just before run-off. Three replicate pots were used per treatment. The plants were placed in sealed, transparent propagators for 72 hours, to maintain high relative humidity and to ensure free water remained on leaves. […] Preventative fungicide sprays were made 1 d before inoculation. Treatments were randomised within the glasshouse. All fungicides were applied at the equivalent rate of 200 L water per hectare, using a calibrated pressurised hand-held sprayer. […]

Row | SMILES | inhibited apyrase (apyrase) | fungal growth in combination with exemplary fungicides (plant pathogenic fungi) | effect of combining Compound 1 (TX15) with the fungicide [1]
1 | C/C(=N\NC(=O)c1cccc(C)c1)c1ccc2ccccc2c1 [Compound 1, (E)-3-methyl-N′-(1-(naphthalen-2-yl)ethylidene)benzohydrazide] | about 60% | dramatically reduces fungal growth | 
2 | CC1(C)CCC(Cc2ccc(Cl)cc2)C1(O)Cn1cncn1 (stereo not drawn) [metconazole] |  |  | synergistic effect
